Experiments:
S. pneumoniae D39V [1] = experiment: Bliss interaction score (quartile over a dose matrix) (fitness difference); higher = more antagonism (negative = synergy)
Outline: (§1)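 Combination data were used to infer fitness under each single drug. Fitness is the OD595 at entry into stationary phase divided by the robust mean of the plate's no-drug wells, with a cap of 1. The Bliss score is the observed minus the expected product fitness, summarised by quartiles over technical, biological and donor/recipient replicates.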

S. aureus Newman [2] = experiment: as above
Outline: as §1

B. subtilis 168 [3] = experiment: as above
Outline: as §1

S. aureus DSM 20231 = experiment: as above
Outline: as §1

S. pneumoniae D39V [4] = experiment: fitness (endpoint OD595 vs no drug) (fraction); higher = more growth; conditions: one replicate
Outline: (§2)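 Cultures at OD595 0.01 were dispensed into 384-well plates in TSB, LB Lennox or CY and incubated at 37 °C. Every 30 min for 14 h, OD595 was read and corrected by the first reading. Fitness is the optical density at entry into stationary phase relative to the robust mean of no-drug control wells, capped at 1.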

S. aureus Newman [5] = experiment: as above
Outline: as §2

B. subtilis 168 [6] = experiment: as above
Outline: as §2

[7] = first compound 0.25 µg/mL, partner 1.25 µg/mL
[8] = first compound 0.25 µg/mL, partner 2.5 µg/mL
[9] = first compound 0.25 µg/mL, partner 5 µg/mL
[10] = first compound 0.5 µg/mL, partner 1.25 µg/mL
[11] = first compound 0.5 µg/mL, partner 2.5 µg/mL
[12] = first compound 0.5 µg/mL, partner 5 µg/mL
[13] = first compound 0.125 µg/mL, partner 1 µg/mL
[14] = first compound 0.125 µg/mL, partner 2 µg/mL
[15] = first compound 0.125 µg/mL, partner 4 µg/mL
[16] = first compound 0.25 µg/mL, partner 1 µg/mL
[17] = first compound 0.25 µg/mL, partner 2 µg/mL
[18] = first compound 0.25 µg/mL, partner 4 µg/mL
[19] = first compound 0.5 µg/mL, partner 1 µg/mL
[20] = first compound 0.5 µg/mL, partner 2 µg/mL
[21] = first compound 0.5 µg/mL, partner 4 µg/mL
[22] = first compound 1 µg/mL, partner 1 µg/mL
[23] = first compound 1 µg/mL, partner 2 µg/mL
[24] = first compound 1 µg/mL, partner 4 µg/mL
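For Bliss interaction score (quartile over a dose matrix) in this document: first quartile when negative (synergy) and third quartile when positive (antagonism).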

CC1=C(C(=O)O)N2C(=O)[C@@H](NC(=O)[C@H](N)c3ccccc3)[C@H]2SC1 [Cephalexin] + C[n+]1ccc(-c2cc[n+](C)cc2)cc1 [Paraquat]
Bliss interaction score (S. pneumoniae D39V [1]): 0.135
Bliss interaction score (S. aureus Newman [2]): 0.0521
Bliss interaction score (B. subtilis 168 [3]): 0.0473
Bliss interaction score (S. aureus DSM 20231): 0.0584
fitness (S. pneumoniae D39V [4]; first compound 0.125 µg/mL, partner 1.5 µg/mL): 0.999
fitness (S. pneumoniae D39V [4]; first compound 0.125 µg/mL, partner 3 µg/mL): 0.909
fitness (S. pneumoniae D39V [4]; first compound 0.125 µg/mL, partner 6 µg/mL): 0.896
fitness (S. pneumoniae D39V [4]; first compound 0.25 µg/mL, partner 1.5 µg/mL): 0.982
fitness (S. pneumoniae D39V [4]; first compound 0.25 µg/mL, partner 3 µg/mL): 0.913
fitness (S. pneumoniae D39V [4]; first compound 0.25 µg/mL, partner 6 µg/mL): 0.897
fitness (S. pneumoniae D39V [4]; first compound 0.5 µg/mL, partner 1.5 µg/mL): 0.998
fitness (S. pneumoniae D39V [4]; first compound 0.5 µg/mL, partner 3 µg/mL): 0.928
fitness (S. pneumoniae D39V [4]; first compound 0.5 µg/mL, partner 6 µg/mL): 0.9
fitness (S. pneumoniae D39V [4]; first compound 1 µg/mL, partner 1.5 µg/mL): 0.828
fitness (S. pneumoniae D39V [4]; first compound 1 µg/mL, partner 3 µg/mL): 0.865
fitness (S. pneumoniae D39V [4]; first compound 1 µg/mL, partner 6 µg/mL): 0.861
fitness (S. pneumoniae D39V [4]; first compound 2 µg/mL, partner 1.5 µg/mL): 0.21
fitness (S. pneumoniae D39V [4]; first compound 2 µg/mL, partner 3 µg/mL): 0.286
fitness (S. pneumoniae D39V [4]; first compound 2 µg/mL, partner 6 µg/mL): 0.328
fitness (S. pneumoniae D39V [4]; first compound 4 µg/mL, partner 1.5 µg/mL): 0.0243
fitness (S. pneumoniae D39V [4]; first compound 4 µg/mL, partner 3 µg/mL): 0.0238
fitness (S. pneumoniae D39V [4]; first compound 4 µg/mL, partner 6 µg/mL): 0.0875
fitness (S. aureus Newman [5]; [7]): 0.986
fitness (S. aureus Newman [5]; [8]): 0.996
fitness (S. aureus Newman [5]; [9]): 0.982
fitness (S. aureus Newman [5]; [10]): 0.874
fitness (S. aureus Newman [5]; [11]): ≥ 1
fitness (S. aureus Newman [5]; [12]): 0.963
fitness (S. aureus Newman [5]; first compound 1 µg/mL, partner 1.25 µg/mL): 0.874
fitness (S. aureus Newman [5]; first compound 1 µg/mL, partner 2.5 µg/mL): 0.918
fitness (S. aureus Newman [5]; first compound 1 µg/mL, partner 5 µg/mL): ≥ 1
fitness (B. subtilis 168 [6]; first compound 0.125 µg/mL, partner 1.25 µg/mL): 0.908
fitness (B. subtilis 168 [6]; first compound 0.125 µg/mL, partner 2.5 µg/mL): 0.937
fitness (B. subtilis 168 [6]; first compound 0.125 µg/mL, partner 5 µg/mL): 0.815
fitness (B. subtilis 168 [6]; [7]): 0.892
fitness (B. subtilis 168 [6]; [8]): 0.912
fitness (B. subtilis 168 [6]; [9]): 0.795
fitness (B. subtilis 168 [6]; [10]): 0.924
fitness (B. subtilis 168 [6]; [11]): 0.902
fitness (B. subtilis 168 [6]; [12]): 0.851

CC1=C(C(=O)O)N2C(=O)[C@@H](NC(=O)[C@H](N)c3ccccc3)[C@H]2SC1 [Cephalexin] + Cc1cc(NS(=O)(=O)c2ccc(N)cc2)no1 [Sulfamethoxazol]
Bliss interaction score (S. pneumoniae D39V [1]): 0.0504
Bliss interaction score (S. aureus Newman [2]): -0.021
Bliss interaction score (B. subtilis 168 [3]): 0.0517
Bliss interaction score (S. aureus DSM 20231): 0.059
fitness (S. pneumoniae D39V [4]; [13]): 0.92
fitness (S. pneumoniae D39V [4]; [14]): 0.961
fitness (S. pneumoniae D39V [4]; [15]): 0.963
fitness (S. pneumoniae D39V [4]; [16]): 0.925
fitness (S. pneumoniae D39V [4]; [17]): 0.937
fitness (S. pneumoniae D39V [4]; [18]): 0.972
fitness (S. pneumoniae D39V [4]; [19]): 0.933
fitness (S. pneumoniae D39V [4]; [20]): 0.979
fitness (S. pneumoniae D39V [4]; [21]): 0.954
fitness (S. pneumoniae D39V [4]; [22]): 0.678
fitness (S. pneumoniae D39V [4]; [23]): 0.717
fitness (S. pneumoniae D39V [4]; [24]): 0.685
fitness (S. pneumoniae D39V [4]; first compound 2 µg/mL, partner 1 µg/mL): 0.0509
fitness (S. pneumoniae D39V [4]; first compound 2 µg/mL, partner 2 µg/mL): 0.165
fitness (S. pneumoniae D39V [4]; first compound 2 µg/mL, partner 4 µg/mL): 0.209
fitness (S. pneumoniae D39V [4]; first compound 4 µg/mL, partner 1 µg/mL): 0
fitness (S. pneumoniae D39V [4]; first compound 4 µg/mL, partner 2 µg/mL): 0.0786
fitness (S. pneumoniae D39V [4]; first compound 4 µg/mL, partner 4 µg/mL): 0.013
fitness (S. aureus Newman [5]; [16]): ≥ 1
fitness (S. aureus Newman [5]; [17]): ≥ 1
fitness (S. aureus Newman [5]; [18]): 0.999
fitness (S. aureus Newman [5]; [19]): 0.988
fitness (S. aureus Newman [5]; [20]): 0.979
fitness (S. aureus Newman [5]; [21]): ≥ 1
fitness (S. aureus Newman [5]; first compound 0.5 µg/mL, partner 8 µg/mL, one replicate): 0.944
fitness (S. aureus Newman [5]; [22]): 1
fitness (S. aureus Newman [5]; [23]): 0.983
fitness (S. aureus Newman [5]; [24]): ≥ 1
fitness (S. aureus Newman [5]; first compound 1 µg/mL, partner 8 µg/mL, one replicate): ≥ 1
fitness (S. aureus Newman [5]; first compound 2 µg/mL, partner 2 µg/mL, one replicate): ≥ 1
fitness (S. aureus Newman [5]; first compound 2 µg/mL, partner 4 µg/mL, one replicate): ≥ 1
fitness (S. aureus Newman [5]; first compound 2 µg/mL, partner 8 µg/mL, one replicate): ≥ 1
fitness (B. subtilis 168 [6]; [13]): 0.951
fitness (B. subtilis 168 [6]; [14]): 0.904
fitness (B. subtilis 168 [6]; [15]): 0.955
fitness (B. subtilis 168 [6]; first compound 0.25 µg/mL, partner 0.5 µg/mL, one replicate): 0.987
fitness (B. subtilis 168 [6]; [16]): 0.924
fitness (B. subtilis 168 [6]; [17]): 0.937
fitness (B. subtilis 168 [6]; [18]): 0.929
fitness (B. subtilis 168 [6]; first compound 0.5 µg/mL, partner 0.5 µg/mL, one replicate): ≥ 1
fitness (B. subtilis 168 [6]; [19]): 0.895
fitness (B. subtilis 168 [6]; [20]): 0.902
fitness (B. subtilis 168 [6]; [21]): 0.945
fitness (B. subtilis 168 [6]; first compound 1 µg/mL, partner 0.5 µg/mL, one replicate): ≥ 1
fitness (B. subtilis 168 [6]; first compound 1 µg/mL, partner 1 µg/mL, one replicate): 0.861
fitness (B. subtilis 168 [6]; first compound 1 µg/mL, partner 2 µg/mL, one replicate): 0.809

Reference: the supplement of paper PMC10627819
